Results from patent publication US20230202989A1, “COMPOUNDS” (JANSSEN PHARMACEUTICA NV, priority 2020, published 2023).
Where two headings read alike, the source gives them in different places.

Assays:
TNF = test: PBMC assay: TNF cytokine levels after LPS stimulation (MSD); assay type: cell-based; settings: human PBMCs, 100 ng/ml LPS for 6 hrs
Description: (§1) Peripheral venous blood s collected from health individuals and human peripheral blood mononuclear cells (PBMCs) ere isolated from blood by Ficoll Histopaque (Sigma-Aldrich, A0561) density gradient centrifugation. After isolation, PBMCs were stored in liquid nitrogen for later use. Upon thawing, PBMC cell viability was determined in growth medium (RPMI media supplemented with 10% fetal bovine serum, 1% Pen-Strep and 1% L-glutamine). Compounds were spotted in a 1:3 serial dilution in DMSO and diluted to the final concentration in 30 μl medium in 96 well plates (Falcon, 353072). PBMCs were added at a density of 7.5×10^4 cells per well and incubated for 30 min in a 5% CO2 incubator at 37° C. LPS stimulation was performed by addition of 100 ng/ml LPS (final concentration, Invivogen, tlrl-smlps) for 6 hrs followed by collection of cellular supernatant and the analysis of IL-1β (μM) and TNF cytokines levels (μM) via MSD technology according to manufacturers' guidelines (MSD, K151A0H).
(§2) The IC50 values (for IL-1β) and EC50 values (TNF) were obtained on compounds of the invention/examples, and are depicted in the following table: […]

IL-1β = test: PBMC assay: inhibition of IL-1β release after LPS stimulation (MSD); assay type: cell-based; settings: human PBMCs, 100 ng/ml LPS for 6 hrs, MSD, 96 well plates, read-out: IL1β IC50
Description: as §1, with “Compounds were spotted in a 1:3 serial dilution in DMSO and diluted to the final concentration in 30 μl medium in 96 well plates (Falcon, 353072).” left out
as §2

| Structure (SMILES) | EC50 (TNF; Homo sapiens, PBMC, 6 h) [nM] | IC50 (IL-1β; Homo sapiens, PBMC, 6 h) [nM] | further results |
| --- | --- | --- | --- |
| CC(C)c1nn(CC(=O)Nc2ccc3nncn3n2)c(=O)c2ccc(C(C)(C)C)cc12 [X-1051] | 7020 | 106 |  |
| CC(C)c1nn(CC(=O)Nc2ccncn2)c(=O)c2ccc(C(F)(F)F)cc12 [Final Cpd 15] | > 20000 | 176 |  |
| CCc1nn(CC(=O)Nc2ccnnc2)c(=O)c2ccc(C(F)(F)F)cc12 [Final Cpd X30] | > 20000 | 219 |  |
| CC(C)c1nn(CC(=O)N[C@@H]2C[C@H](O)CN(C)C2)c(=O)c2ccc(C(F)(F)F)cc12 (mixture of isomers) [Final Cpd X133] |  |  | EC50 (TNF): > 20000 nM; IC50 (IL-1β): 3380 nM |
| CC(C)c1nn(CC(=O)NC2CC(F)(F)C2)c(=O)c2ccc(C(F)(F)F)cc12 [Final Cpd X156] | > 20000 | 8770 |  |
| CCOC(C)c1ccc2c(=O)n(CC(=O)N[C@H]3C[C@@](C)(O)C3)nc(C(C)C)c2c1 (stereo partly shown) [X-1042] | > 20000 | 12200 |  |
| C[C@]1(O)C[C@@H](NC(=O)Cn2nc(C3CC3)c3cc(C(F)(F)F)ccc3c2=O)C1 [Final Cpd X4] | > 20000 | 60 |  |
| CC(C)c1nn(CC(=O)Nc2ccc3cnnn3c2)c(=O)c2ccc(C(F)(F)F)cc12 [Final Cpd X101] | > 20000 | 1280 |  |
| CCc1nn(CC(=O)N[C@H]2CC[C@H](O)CC2)c(=O)c2ccc(C3CC3)cc12 [Final Cpd 27] | > 10000 | 1660 |  |
| O=C(Cn1nc(C(O)C(F)(F)F)c2cc(C(F)(F)F)ccc2c1=O)Nc1ccc2nncn2c1 (stereo not shown) [Final Cpd X61] | > 20000 | 588 |  |
| CCc1nn(CC(=O)N[C@H]2CC[C@H](O)CC2)c(=O)c2ccc(C)cc12 [Final Cpd 26, trans-2-(6-methyl-4-ethyl-1-oxo-phthalazin-2-yl)-N-(4-hydroxycyclohexyl)acetamide] | > 10000 | > 10000 |  |
| CCc1nn(CC(=O)Nc2ccncn2)c(=O)c2ccc(C(F)(F)F)cc12 [Final Cpd 9] | > 10000 | 580 |  |
| CCc1ccc2c(=O)n(CC(=O)N[C@H]3C[C@@](C)(O)C3)nc(CC)c2c1 [Final Cpd 22] | > 10000 | 340 |  |
| CC(C)c1nn(CC(=O)NC2(C)CC(F)(F)C2)c(=O)c2ccc(C(F)(F)F)cc12 [Final Cpd X126] | > 20000 | 2940 |  |
| CC(O)c1nn(CC(=O)Nc2ccn(C(C)C)n2)c(=O)c2ccc(Br)cc12 (stereo not shown) [X-1079, 2-(6-bromo-4-(1-hydroxyethyl)-1-oxophthalazin-2(1H)-yl)-N-(1-isopropyl-1H-pyrazol-3-yl)acetamide] | > 20000 | 9790 |  |
| CC(C)c1ccc2c(=O)n(CC(=O)Nc3cn4cnnc4cn3)nc(C(C)C)c2c1 [X-1086] | > 20000 | 137 |  |
| CC(C)c1nn(CC(=O)Nc2ccc3cncn3c2)c(=O)c2ccc(Cl)cc12 [X-1030] | > 20000 | 436 |  |
| Cc1cc2nccn2cc1NC(=O)Cn1nc(C(C)C)c2cc(C(F)(F)F)ccc2c1=O [Final Cpd X167] | > 20000 | 17800 |  |
| CC[C@]1(O[Si](C)(C)C(C)(C)C)C[C@@H](NC(=O)Cn2nc(C(C)C)c3cc(Br)ccc3c2=O)C1 [X-1089, 2-(6-bromo-4-isopropyl-1-oxophthalazin-2(1H)-yl)-N-((1r,3s)-3-((tert-butyldimethylsilyl)oxy)-3-ethylcyclobutyl)acetamide] |  |  | EC50 (TNF; PBMC): > 20000 nM; IC50 (IL-1β; PBMC): > 20000 nM |
| COCCn1nc(NC(=O)Cn2nc(C(C)C)c3cc(C(F)(F)F)ccc3c2=O)ccc1=O [Final Cpd X62] | > 20000 | 591 |  |

Now from value to compound, other results behind:

| EC50 (TNF; Homo sapiens, PBMC, 6 h) [nM] | IC50 (IL-1β; Homo sapiens, PBMC, 6 h) [nM] | Structure (SMILES) | further results |
| --- | --- | --- | --- |
| > 20000 | 1520 | CO[C@H]1C[C@H](NC(=O)Cn2nc(C(C)C)c3cc(C(F)(F)F)ccc3c2=O)C1 [Final Cpd X105] |  |
| > 20000 | > 20000 | CC(C)c1nn(CC(=O)Nc2ccc(C(F)F)nn2)c(=O)c2ccc(C(F)(F)F)cc12 [Final Cpd X176] |  |
| > 20000 | 235 | O=C(Cn1nc(C(F)F)c2cc(C(F)(F)F)ccc2c1=O)Nc1ccc2nncn2c1 [Final Cpd X32] |  |
| > 20000 | 193 | Cc1cc(NC(=O)Cn2nc(C(C)C)c3cc(C(F)(F)F)ccc3c2=O)cn2cnnc12 [Final Cpd X28, 2-(4-isopropyl-1-oxo-6-(trifluoromethyl)phthalazin-2(1H)-yl)-N-(8-methyl-[1,2,4]triazolo[4,3-a]pyridin-6-yl)acetamide] |  |
| > 20000 | 92 | CC(C)c1nn(CC(=O)N[C@@H]2CCCN(C3CC3)C2)c(=O)c2ccc(C(F)(F)F)cc12 [Final Cpd X10] |  |
| > 20000 | 440 | Cc1cc(NC(=O)Cn2nc(C(C)C)c3cc(C(F)(F)F)ccc3c2=O)nn(C)c1=O [Final Cpd X51] |  |
| > 20000 | 442 | CC(C)c1nn(CC(=O)Nc2cc(Br)c3nncn3c2)c(=O)c2ccc(C(F)(F)F)cc12 [Final Cpd X52, N-(8-Bromo-[1,2,4]triazolo[4,3-a]pyridin-6-yl)-2-(4-isopropyl-1-oxo-6-(trifluoromethyl)phthalazin-2(1H)-yl)acetamide] |  |
| > 20000 | 1410 | CC(C)c1nn(CC(=O)N[C@H]2CN(C3COC3)CC[C@H]2O)c(=O)c2ccc(C(F)(F)F)cc12 [Final Cpd X104] |  |
| > 10000 | 190 | CCc1nn(CC(=O)Nc2ccncn2)c(=O)c2ccc(Br)cc12 [Final Cpd 2, 2-(6-bromo-4-ethyl-1-oxo-phthalazin-2-yl)-N-pyrimidin-4-yl-acetamide] |  |
| > 20000 | 735 | CC(C)c1nn(CC(=O)Nc2ncnc3c2ncn3C)c(=O)c2ccc(C(F)(F)F)cc12 [Final Cpd X69] |  |
| 12900 | 888 | CC(C)c1nn(CC(=O)Nc2ccc3nncn3n2)c(=O)c2c(O)cc(C(F)(F)F)cc12 [Final Cpd X82] |  |
| > 20000 | 4740 | O=C(Cn1nc(C2(F)CC2)c2cc(C(F)(F)F)ccc2c1=O)Nc1ccc2nncn2c1 [Final Cpd X142] |  |
| > 20000 | 451 | CC(C)c1nn(CC(=O)Nc2ccn3ccnc3c2)c(=O)c2ccc(C(F)(F)F)cc12 [Final Cpd X54] |  |
| > 20000 | 2800 | CC(C)c1nn(CC(=O)N[C@H]2C[C@@](C)(O)C2)c(=O)c2ccc(C3CC3(F)F)cc12 (stereo partly shown) [X-1068] |  |
| > 20000 | 916 | CC(C)c1nn(CC(=O)Nc2ccc3nnc(C(F)(F)F)n3n2)c(=O)c2ccc(C(F)(F)F)cc12 [Final Cpd X87] |  |
| > 20000 | 848 | CC(C)c1nn(CC(=O)Nc2ccc3cnn(C)c3c2)c(=O)c2ccc(Br)cc12 [X-1033] |  |
| > 20000 | 224 | O=C(Cn1nc(C2CC2)c2cc(Br)ccc2c1=O)Nc1ccc2nncn2n1 [X-1001] |  |
| > 20000 |  | CC(C)c1nn(CC(=O)Nc2ncc3nc[nH]c3n2)c(=O)c2ccc(C(F)(F)F)cc12 [Final Cpd X1, 2-(4-isopropyl-1-oxo-6-(trifluoromethyl)phthalazin-2(1H)-yl)-N-(9H-purin-2-yl)acetamide] |  |
| > 20000 | 346 | CC(O)c1nn(CC(=O)Nc2ccc3nncn3c2)c(=O)c2ccc(Br)cc12 (stereo not shown) [X-1082] |  |
| > 20000 | 374 | CC[C@H](C)c1nn(CC(=O)Nc2ccc3nncn3c2)c(=O)c2ccc(C(F)(F)F)cc12 (single isomer, unassigned) [Final Cpd X43] |  |
